Patent publication US9561228B2 (Celgene Avilomics Research, Inc., priority 2013, dated 2017)

Assays:
[1] = test system: ERK1/2 phosphorylation of p90RSK in HT29 cells; assay: pRSK MSD Assay in HT29 cells; format: cell-based; settings: Homo sapiens, HT-29, read-out: ERK1/ERK2 PRSK MSD HT29 EC50
Summary of the method: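 Serum-starved HT29 cells (0.1% FBS overnight) treated with test compound for 120 min at 37° C, then lysed with protease and phosphatase inhibitors. Phospho-p90RSK quantified by MSD sandwich immunoassay: RSK capture antibody, phospho-RSK detection antibody plus Sulfo-tagged antibody, electrochemiluminescence read.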

[2] = test system: ERK1/2 phosphorylation of p90RSK in HCT116 cells; assay: Detection of total and phospho-RSK by MSD ELISA (HCT116); format: cell-based; settings: Homo sapiens, HCT-116, read-out: ERK1/ERK2 PRSK HCT116 EC50
Summary of the method: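 HCT116 cells treated with compound in RPMI/10% FBS for 2 h at 37° C, then lysed. Phospho-RSK (Ser380) and total RSK in lysates measured by MSD sandwich electrochemiluminescence ELISA as a readout of ERK1/2 activity.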

`C=CC(=O)Nc1cc(C)ccc1Nc1nc(Nc2cc(OC)nnc2OC)ncc1C(F)(F)F` [Compound I-372, N-(2-((2-((3,6-dimethoxypyridazin-4-yl)amino)-5-(trifluoromethyl)pyrimidin-4-yl)amino)-5-methylphenyl)acrylamide] was tested, and the EC50 [1] was < 100 nM and the EC50 [2] was 101 to 500 nM.

Work on `C=CC(=O)Nc1cc(C)ccc1Nc1nc(Nc2cc(-c3nc[nH]n3)ccc2C)ncc1C(F)(F)F` [Compound I-373, N-(5-methyl-2-((2-((2-methyl-5-(1H-1,2,4-triazol-3-yl)phenyl)amino)-5-(trifluoromethyl)pyrimidin-4-yl)amino)phenyl)acrylamide] yielded an EC50 [1] of 101 to 500 nM and an EC50 [2] of 501 to 999 nM.

`C=CC(=O)Nc1cc(C)c(F)cc1Nc1nc(Nc2nc(OC)ncc2Cl)ncc1C(F)(F)F` [Compound I-374, N-(2-((2-((5-chloro-2-methoxypyrimidin-4-yl)amino)-5-(trifluoromethyl)pyrimidin-4-yl)amino)-4-fluoro-5-methylphenyl)acrylamide] was tested, and the EC50 [1] was < 100 nM and the EC50 [2] was < 100 nM.

For `C=CC(=O)Nc1cc(C)ccc1Nc1nc(Nc2ccc3ocnc3c2)ncc1C(F)(F)F` [Compound I-375, N-(2-((2-(benzo[d]oxazol-5-ylamino)-5-(trifluoromethyl)pyrimidin-4-yl)amino)-5-methylphenyl)acrylamide], the EC50 [1] was > 1000 nM and the EC50 [2] was > 1000 nM.

In the case of `C=CC(=O)Nc1cc(C)ccc1Nc1nc(Nc2cc(OCCO)ncc2C)ncc1C(F)(F)F` [Compound I-376, N-(2-((2-((2-(2-hydroxyethoxy)-5-methylpyridin-4-yl)amino)-5-(trifluoromethyl)pyrimidin-4-yl)amino)-5-methylphenyl)acrylamide], the EC50 [1] is reported as < 100 nM and the EC50 [2] is reported as < 100 nM.

`C=CC(=O)Nc1cc(C)c(F)cc1Nc1nc(Nc2nc(OC)ncc2C)ncc1C(F)(F)F` [Compound I-377, N-(4-fluoro-2-((2-((2-methoxy-5-methylpyrimidin-4-yl)amino)-5-(trifluoromethyl)pyrimidin-4-yl)amino)-5-methylphenyl)acrylamide] was tested, and the EC50 [1] was < 100 nM and the EC50 [2] was < 100 nM.

For `C=CC(=O)Nc1cc(C)ccc1Nc1nc(Nc2cc(-c3c[nH]cn3)ccc2C)ncc1C(F)(F)F` [Compound I-378, N-(2-((2-((5-(1H-imidazol-4-yl)-2-methylphenyl)amino)-5-(trifluoromethyl)pyrimidin-4-yl)amino)-5-methylphenyl)acrylamide], the EC50 [1] was 101 to 500 nM and the EC50 [2] was > 1000 nM.

In the case of `C=CC(=O)Nc1cc(C)ccc1Nc1nc(Nc2ccnc3ccccc23)ncc1C(F)(F)F` [Compound I-379, N-(5-methyl-2-((2-(quinolin-4-ylamino)-5-(trifluoromethyl)pyrimidin-4-yl)amino)phenyl)acrylamide], the EC50 [1] is reported as < 100 nM and the EC50 [2] is reported as 501 to 999 nM.

In the case of `C=CC(=O)Nc1cc(CN2CCN(C(C)=O)CC2)ccc1Nc1nc(Nc2cc(OC)ncc2C)ncc1C(F)(F)F` [Compound I-381, N-(5-((4-acetylpiperazin-1-yl)methyl)-2-((2-((2-methoxy-5-methylpyridin-4-yl)amino)-5-(trifluoromethyl)pyrimidin-4-yl)amino)phenyl)acrylamide], the EC50 [1] is reported as < 100 nM and the EC50 [2] is reported as < 100 nM.

`C=CC(=O)Nc1cc(CN2CCN(C(C)=O)CC2)ccc1Nc1nc(Nc2nc(OC)ncc2C)ncc1C(F)(F)F` [Compound I-382, N-(5-((4-acetylpiperazin-1-yl)methyl)-2-((2-((2-methoxy-5-methylpyrimidin-4-yl)amino)-5-(trifluoromethyl)pyrimidin-4-yl)amino)phenyl)acrylamide] was tested, and the EC50 [1] was 101 to 500 nM and the EC50 [2] was 501 to 999 nM.

For `C=CC(=O)Nc1cc(CN2CCN(S(C)(=O)=O)CC2)ccc1Nc1nc(Nc2nc(OC)ncc2C)ncc1C(F)(F)F` [Compound I-383, N-(2-((2-((2-methoxy-5-methylpyrimidin-4-yl)amino)-5-(trifluoromethyl)pyrimidin-4-yl)amino)-5-((4-(methylsulfonyl)piperazin-1-yl)methyl)phenyl)acrylamide], the EC50 [1] was < 100 nM and the EC50 [2] was 101 to 500 nM.

`C=CC(=O)Nc1cc(CN2CCN(S(C)(=O)=O)CC2)ccc1Nc1nc(Nc2cc(OC)ncc2C)ncc1C(F)(F)F` [Compound I-384, N-(2-((2-((2-methoxy-5-methylpyridin-4-yl)amino)-5-(trifluoromethyl)pyrimidin-4-yl)amino)-5-((4-(methylsulfonyl)piperazin-1-yl)methyl)phenyl)acrylamide] was tested, and the EC50 [1] was < 100 nM and the EC50 [2] was < 100 nM.

With `C=CC(=O)Nc1cc(CN2CCN(C(=O)CO)CC2)ccc1Nc1nc(Nc2cc(OC)ncc2C)ncc1C(F)(F)F` [Compound I-385, N-(5-((4-(2-hydroxyacetyl)piperazin-1-yl)methyl)-2-((2-((2-methoxy-5-methylpyridin-4-yl)amino)-5-(trifluoromethyl)pyrimidin-4-yl)amino)phenyl)acrylamide] the EC50 [1] was < 100 nM and the EC50 [2] was < 100 nM.

For `C=CC(=O)Nc1cc(CN2CCN(C(=O)CO)CC2)ccc1Nc1nc(Nc2nc(OC)ncc2C)ncc1C(F)(F)F` [Compound I-386, N-(5-((4-(2-hydroxyacetyl)piperazin-1-yl)methyl)-2-((2-((2-methoxy-5-methylpyrimidin-4-yl)amino)-5-(trifluoromethyl)pyrimidin-4-yl)amino)phenyl)acrylamide], the EC50 [1] was 501 to 999 nM and the EC50 [2] was 501 to 999 nM.

`C=CC(=O)Nc1cc(OCC(N)=O)ccc1Nc1nc(NC2CCOCC2)ncc1C(F)(F)F` [Compound I-387, N-(5-(2-amino-2-oxoethoxy)-2-((2-((tetrahydro-2H-pyran-4-yl)amino)-5-(trifluoromethyl)pyrimidin-4-yl)amino)phenyl)acrylamide] showed an EC50 [1] of 101 to 500 nM and an EC50 [2] of 101 to 500 nM.

`C=CC(=O)Nc1cc(CN2CCN(C(=O)c3ccccn3)CC2)ccc1Nc1nc(Nc2cc(OC)ncc2C)ncc1C(F)(F)F` [Compound I-388, N-(2-((2-((2-methoxy-5-methylpyridin-4-yl)amino)-5-(trifluoromethyl)pyrimidin-4-yl)amino)-5-((4-picolinoylpiperazin-1-yl)methyl)phenyl)acrylamide] was tested, and the EC50 [1] was < 100 nM and the EC50 [2] was < 100 nM.

`C=CC(=O)Nc1cc(CN2CCN(C(=O)c3cccnc3)CC2)ccc1Nc1nc(Nc2cc(OC)ncc2C)ncc1C(F)(F)F` [Compound I-389, N-(2-((2-((2-methoxy-5-methylpyridin-4-yl)amino)-5-(trifluoromethyl)pyrimidin-4-yl)amino)-5-((4-nicotinoylpiperazin-1-yl)methyl)phenyl)acrylamide] was tested, and the EC50 [1] was < 100 nM and the EC50 [2] was < 100 nM.

For `C=CC(=O)Nc1cc(CN2CCN(C(=O)c3cnccn3)CC2)ccc1Nc1nc(Nc2cc(OC)ncc2C)ncc1C(F)(F)F` [Compound I-390, N-(2-((2-((2-methoxy-5-methylpyridin-4-yl)amino)-5-(trifluoromethyl)pyrimidin-4-yl)amino)-5-((4-(pyrazine-2-carbonyl)piperazin-1-yl)methyl)phenyl)acrylamide], the EC50 [1] was < 100 nM and the EC50 [2] was < 100 nM.

`C=CC(=O)Nc1cc(CN2CCN(C(=O)c3ccccn3)CC2)ccc1Nc1nc(Nc2nc(OC)ncc2C)ncc1C(F)(F)F` [Compound I-391, N-(2-((2-((2-methoxy-5-methylpyrimidin-4-yl)amino)-5-(trifluoromethyl)pyrimidin-4-yl)amino)-5-((4-picolinoylpiperazin-1-yl)methyl)phenyl)acrylamide] gave an EC50 [1] of 101 to 500 nM and an EC50 [2] of 101 to 500 nM.
